In ChEMBL document CHEMBL5303304, “EUbOPEN Chemogenomics Library - IncuCyte” (2023):

Key:
Assay type in all cases: toxicity, cell-based
HEK-293T = assay: Incucyte cell viability with HEK293T; conditions: human, 10 µM, compound concentration 10 uM
U2OS = assay: Incucyte cell viability with U2OS; conditions: human, 10 µM, compound concentration 10 uM
Fibroblast = assay: Incucyte cell viability with human fibroblast; conditions: 10 µM, compound concentration 10 uM
Also: unitless GR value; below 1 slowed growth and below 0 cell loss.

SMILES | Growth Rate (HEK-293T; 0 h, replicate number 1) | Growth Rate (HEK-293T; 0 h, replicate number 2) | Growth Rate (HEK-293T; 6 h, replicate number 2) | Growth Rate (HEK-293T; 12 h, replicate number 1) | Growth Rate (HEK-293T; 12 h, replicate number 2) | Growth Rate (HEK-293T; 18 h, replicate number 2) | Growth Rate (U2OS; 0 h, replicate number 1) | Growth Rate (U2OS; 6 h, replicate number 1) | Growth Rate (U2OS; 6 h, replicate number 2) | Growth Rate (U2OS; 12 h, replicate number 1) | Growth Rate (U2OS; 18 h, replicate number 1) | Growth Rate (U2OS; 18 h, replicate number 2) | Growth Rate (U2OS; 24 h, replicate number 1) | Growth Rate (Fibroblast; 6 h, replicate number 1) | Growth Rate (Fibroblast; 6 h, replicate number 2) | Growth Rate (Fibroblast; 12 h, replicate number 1) | Growth Rate (Fibroblast; 12 h, replicate number 2) | Growth Rate (Fibroblast; 18 h, replicate number 1) | Growth Rate (Fibroblast; 24 h, replicate number 1) | Growth Rate (U2OS; 0 h, replicate number 2) | also measured
c1cc(-c2cnn3cc(-c4ccc(N5CCNCC5)cc4)cnc23)c2cccnc2c1 | -0.92 | 0.43 | -0.96 | -0.55 | -0.77 | -0.58 | -0.73 | -0.87 | -0.62 | -0.69 | -0.57 | -0.48 | -0.49 | -0.19 | -1 | -1 | -0.91 | -0.44 | 0.25 | – | Growth Rate (HEK-293T; 6 h, replicate number 1): -0.69; Growth Rate (HEK-293T; 18 h, replicate number 1): -0.44; Growth Rate (HEK-293T; 24 h, replicate number 1): -0.34; Growth Rate (HEK-293T; 24 h, replicate number 2): -0.45; Growth Rate (U2OS; 12 h, replicate number 2): -0.61; Growth Rate (U2OS; 24 h, replicate number 2): -0.43; Growth Rate (Fibroblast; 0 h, replicate number 2): -0.9; Growth Rate (Fibroblast; 18 h, replicate number 2): -0.74; Growth Rate (Fibroblast; 24 h, replicate number 2): -0.55
NC(=O)c1ccc(-c2nc(-c3ccc4c(c3)OCO4)c(-c3ccccn3)[nH]2)cc1.O | 0.76 | – | – | – | – | – | -0.57 | 0.96 | – | 0.79 | 0.95 | 0.79 | 0.94 | -0.01 | -0.54 | – | – | -0.48 | – | -0.09 | Growth Rate (Fibroblast; 0 h, replicate number 1): -0.21
CCN1C(=O)/C(=C(\NC2CCN(C)CC2)c2ccc3c(c2)OCO3)c2cc(C(C)=O)ccc21 | – | – | 0.16 | 0.64 | 0.78 | 0.77 | 0.46 | 0.59 | 0.61 | – | – | – | 0.89 | 0.42 | 0.53 | 0.32 | 0.27 | 0.7 | 0.64 | -0.34 | Growth Rate (HEK-293T; 6 h, replicate number 1): 0.44; Growth Rate (HEK-293T; 18 h, replicate number 1): 0.63; Growth Rate (HEK-293T; 24 h, replicate number 1): 0.71; Growth Rate (U2OS; 12 h, replicate number 2): 0.81; Growth Rate (U2OS; 24 h, replicate number 2): 0.95; Growth Rate (Fibroblast; 0 h, replicate number 1): -1; Growth Rate (Fibroblast; 18 h, replicate number 2): 0.5; Growth Rate (Fibroblast; 24 h, replicate number 2): 0.76
Clc1cccc(-n2nnnc2NCc2ccccc2Oc2ccccn2)c1Cl | 0.73 | 0.49 | – | – | – | – | -0.04 | – | 0.99 | 0.9 | – | 0.96 | – | – | -0.47 | – | 0.89 | 0.74 | 0 | 0.95 | Growth Rate (Fibroblast; 0 h, replicate number 1): 0.89; Growth Rate (Fibroblast; 0 h, replicate number 2): 0.26
CN[C@@H](C)C(=O)N[C@H](C(=O)N1CCC[C@H]1C(=O)N[C@@H]1CCCc2ccccc21)C1CCCCC1.Cl | – | -0.36 | 0.63 | 0.81 | 0.9 | 0.87 | 0.24 | 0.97 | – | 0.89 | – | – | – | – | – | 0.76 | 0.89 | 0.75 | 0.72 | – | Growth Rate (HEK-293T; 24 h, replicate number 2): 0.88
CC1(C)C(=O)N([C@H]2CCc3c(O)cccc32)c2nc(Nc3cccc(CN4CCCC4)c3)ncc21 | – | -1 | -0.56 | -0.53 | -0.41 | -0.35 | -0.88 | 0.38 | -0.15 | 0.05 | -0.08 | -0.3 | -0.27 | -0.49 | -0.63 | -0.4 | -0.57 | -0.44 | -0.42 | 0.2 | Growth Rate (HEK-293T; 6 h, replicate number 1): -0.69; Growth Rate (HEK-293T; 18 h, replicate number 1): -0.36; Growth Rate (HEK-293T; 24 h, replicate number 1): -0.28; Growth Rate (HEK-293T; 24 h, replicate number 2): -0.32; Growth Rate (U2OS; 12 h, replicate number 2): -0.3; Growth Rate (U2OS; 24 h, replicate number 2): -0.38; Growth Rate (Fibroblast; 18 h, replicate number 2): -0.52; Growth Rate (Fibroblast; 24 h, replicate number 2): -0.52
C/C(=C\C(=O)Nc1ccccc1C(=O)[O-])c1ccc2ccccc2c1.[Na+] | 0.79 | 0.69 | – | – | – | – | 0.38 | 0.69 | – | 0.95 | 0.83 | – | 0.94 | 0.57 | -0.21 | – | 0.94 | 0.97 | 0.83 | – | Growth Rate (Fibroblast; 0 h, replicate number 2): -0.44
